Here are results for 87 compounds from a melting point compilation (Tetko et al.; mined from patent text by program, amines drawn as free bases though some values may be those of a salt).

Molecules are shown by their SMILES. Non-standard residues stand in square brackets, D forms with d. Residues, ends and D or L forms follow the SMILES beside them. ξ: configuration not given here. *: point of attachment. ξPhe(4-F) = NC(Cc1ccc(F)cc1)C(=O)O; Boc = CC(C)(C)OC(=O)* A value given as a limit tells only on which side of the number the result lay.

Broadly, the melting point is the temperature, or range, at which the solid turns liquid. Take `CCCC(C)CNc1cccc(-c2ccnc3c(C(=O)c4cccs4)cnn23)c1` (configuration not stated): the melting point was in the range of 133 to 135 °C. With `COC(=O)N(CCO)c1ccc(OCc2nc3ccccc3s2)cc1C` the figure was 109 to 110 °C; with `CCN(CC)C(=O)c1cccnc1OC`, 83 °C; with `CCCCCCCCCCCCC(O)CN(CCC#N)CCCCCCCCCCCCN(CCC#N)CC(O)CCCCCCCCCCCC` (configuration not stated), 37 to 38 °C.

In turn, `COc1cc(Nc2nc3cccc(-c4ccc(N)cc4)c3o2)cc(OC)c1OC` registered a melting point of 192 to 196 °C. For the compound `Cc1nc2ncnn2c(Cl)c1C1CCCC1`, the melting point came to 87 °C. For `CCNC(=O)C(Cc1ccc(F)cc1)NC(=O)CNC(=O)OC(C)(C)C` (stereo not drawn) (Boc-Gly-[ξPhe(4-F)]-NHEt), the melting point lay in the range of 181 to 182 °C.

Consider `CCOC(=O)c1cc(C(C)(C)C)n(-c2ccc(S(C)(=O)=O)cc2)n1`, for which the melting point lay within 175 to 178 °C. `N#Cc1ccc(N2C(=O)C3C(O)CCCN3C2=O)c2ccccc12` (configuration not stated) displayed a melting point of 243 °C. For the compound `Cc1ccc(C(=O)NC(C)NC(=S)Nc2cccc([N+](=O)[O-])c2)cc1` (configuration not stated), the melting point was in the range of 172 to 175 °C. With `N#Cc1coc(CBr)c1`, the melting point was in the range of 40 to 45 °C. With `OCCN1CCN(Cc2nnc3n2-c2ccc(Cl)cc2C(c2ccccc2)=NC3)CC1` the figure was 113 to 118 °C; with `CC(=O)C=Cc1cccc(OCCF)c1OCCF`, 71 to 72 °C. `CCOC(=O)c1cc(=O)c2c(OCC(O)COc3ccc(Cl)cc3Cl)cccc2o1` (configuration not stated) returned a melting point of 98 to 100 °C.

The compound `COc1ccc(C2=NN(Cc3ccccc3N)C(=O)SC2)cc1OC` had a melting point of 105 °C.

On to `CCCCOCCN(CCCCCSc1nc(-c2ccccc2)c(-c2ccccc2)[nH]1)C(=O)Nc1ccc(F)cc1F`, for which the melting point was in the range of 69 to 71 °C. Consider `O=c1[nH]c2cc(Cl)ccc2c(O)c1-c1ccccc1[N+](=O)[O-]`, for which the melting point lay within 298 to 300 °C.

For `CCN(CC(C)C)c1c(C(O)C#Cc2ccc(C(=O)O)cc2)cccc1C(C)(C)C` (configuration not stated), the melting point stood at 117 °C. Take `O=C(O)CCCCCCCCc1cccs1`: the melting point lay within 32 to 33 °C. `O=c1[nH]nc(-c2ccccc2)c(-c2ccccc2)c1-c1ccccc1` came in with a melting point of 290 to 292 °C. In the case of `Clc1ccc(C(C2=NCCN2)c2nccs2)cc1` (configuration not stated), the melting point fell in the range of 145 to 147 °C. For `Cc1cnc(I)c(OCc2ccccc2)c1`, the melting point fell in the range of 83 to 85 °C. `N#Cc1cc(-c2nc3cncnc3s2)ccc1Oc1ccccc1Cl` registered a melting point of 209 to 211 °C.

Consider `N#CC1=C(C2CCCCCC2)Nc2n[nH]cc2C1c1ccccc1Cl` (configuration not stated), for which the melting point came to 146 °C. On to `CON=Cc1ccc2c(c1)c1c(n2CCc2cccc(F)n2)CC[C@@H](NC(=O)C2CC2)C1`, for which the melting point is 223 to 225 °C. With `O=C(O)c1cc2ccc(OCCNC[C@H](O)COc3ccccc3)cc2o1` the figure was 214 to 217 °C; with `CC(C)(C)C1=CC(=Cc2cccc([N+](=O)[O-])c2)C=C(C(C)(C)C)C1=O`, 118 °C; with `COc1ccc2nccc(CCC[C@@H]3CCN(CC#Cc4ccccc4)C[C@@H]3C(=O)O)c2c1`, 166 °C. Take `COc1cc([N+](=O)[O-])c(NC(C)=O)cc1OC(F)F`: the melting point is 116 to 117 °C. `CC(=O)C1CCC2C3CCC4CC(O)C(N5CC(C)OC(C)C5)CC4(C)C3C(=O)CC12C` (configuration not stated) displayed a melting point of 172 to 174 °C.

Compound `Nc1ncccc1C(=O)NCC1CCN(C[C@H]2COc3ccc4[nH]ccc4c3O2)CC1` gave a melting point of 104 to 106 °C. With `CC(=O)OCc1cn(C)c2ccccc2c1=O` the figure was 142 to 146 °C; with `CCOC(=N)N1Cc2ccccc2-c2ccccc2C1`, 68 to 71 °C. On to `COC(=O)[C@@H]1C/C=C/COc2ccc(cc2)C[C@H](NC(=O)OC(C)(C)C)C(=O)N[C@@H](C(C)C)C(=O)N1`, for which the melting point lay in the range of 105 to 107 °C. Compound `CCCCOCCOc1ccc(-c2cnc(N3CCC(COC(C)=O)C3)c(/C=C(\C)C(=O)O)c2)cc1` (configuration not stated) returned a melting point of 82.2 to 84.2 °C. `O=S1(=O)c2cccc3cccc(c23)N1CCCl`: the melting point stood at 96 °C.

In turn, `CCS(=O)(=O)c1ccc2c(c1)nc(CC(C)(C)C)n2CCOC(F)(F)F` came in with a melting point of 133 °C. `COc1nc(C)n2nc(S(=O)(=O)Cl)nc2c1Cl` showed a melting point of 100 to 101 °C. For `COc1cc(CCN2CCN(c3nsc4ccccc34)CC2)c(NC(=O)C=C(C)C)cc1OC`, the melting point amounted to 58 °C. With `COc1ccc(-c2[nH]nc3c2C(=O)c2c(NC(=O)CN4CCN(c5ccccn5)CC4)cccc2-3)cc1`, the melting point is above 300 °C.

On to `CC(O)CCc1ccc(-c2ccccc2F)cc1` (configuration not stated), for which the melting point was in the range of 59 to 60 °C. Regarding `Cc1cccc(C(=O)c2[nH]c3cc(Cl)ccc3c2NC(=O)CC(C)C)c1`, the melting point was in the range of 182 to 185 °C.

Compound `CCOC(=O)c1c(C)nc2c(nc(C)n2C)c1OCC` yielded a melting point of 85 to 87 °C. As for `O=C(O)C=Cc1ccc(C=CC(=O)O)c2ccccc12`, the melting point fell in the range of 350 to 355 °C. `Cn1c(C(F)(F)F)cc(=O)n(-c2cc(C=O)c(Cl)cc2F)c1=O` came in with a melting point of 172 to 174 °C. To `Nc1ncnc2c1ncn2Cc1nc2c(Cl)cccc2c(=O)n1-c1ccccc1Cl` belongs 273 to 274 °C.

Compound `CC(C)(C)NC(=O)[C@@H]1CSCN1C[C@@H](O)[C@H](Cc1ccccc1)NC(=O)OCc1ccccc1` gave a melting point of 62 to 65 °C. With `CC(C)(C(=O)O)c1ccc(C(=O)CCCN2CCC(=C3c4ccccc4CCc4ccccc43)CC2)cc1`, the melting point is 122 to 125 °C. For `CCOC(=O)Cn1c(=O)sc2ccc(C3=NNC(=O)NC3C)cc21` (configuration not stated), the melting point lay in the range of 200 to 202 °C. With `CCOC(=O)C(Cc1ccc(OCCc2nc(-c3ccccc3)oc2C)cc1)C(=O)O` (configuration not stated) the figure was 95.1 to 96 °C; with `CCOC(=O)CN(Cc1ccccc1)c1ncnc2c(N3CCOCC3)nc(N3CCC(N(C)C)CC3)nc12`, 112 to 115 °C.

`COc1cc2ncnc(N3CCC(CCBr)CC3)c2cc1OC` showed a melting point of 191 °C. Regarding `CCOC(=O)CNC(=O)c1nnc2ccc(NCCCN3CCC(OC(c4ccccc4)c4ccccc4)CC3)nn12`, the melting point was in the range of 152 to 155 °C.

Turning to `O=C(O)C(=O)CC(=O)c1cccn1Cc1cccc(Cl)c1`, the melting point lay in the range of 159 to 161 °C. To `O=C1CCC(c2ccccc2)(c2ccccc2)[C@@H]2CN(Cc3ccccc3)C[C@H]12` (racemic) belongs 132 °C; to `COc1ccc(-c2cc(=O)c3c(O)cc(OCC4=COC(C)(C)O4)cc3o2)cc1OCC1=COC(C)(C)O1`, 155 to 156 °C; to `COc1ccc(/C=C(\C#N)c2ccc(Br)cc2)cc1OC1CCCC1`, 116 to 119 °C. Regarding `O=C(O)C=CC(=S)c1ccc(-c2ccccc2)cc1`, the melting point was in the range of 157 to 159 °C. To `NCCN1CCC(Nc2nc3ccccc3[nH]2)CC1` belongs 99.8 °C; to `CCCc1nn(C)c2c(=O)n(CCCc3cccc(OC(C)(CC)C(=O)O)c3)c(C)nc12` (configuration not stated), 136 to 138 °C.

The compound `C=CCC1(C(C)(C)C(=O)OCC)C(=O)NC(=O)NC1=O` yielded a melting point of 112 to 114 °C. With `O=C(O)Cc1cccc(Oc2ccc(Cl)cc2)c1[N+](=O)[O-]` the figure was 167 to 170 °C; with `CCOCCn1nc(-c2cc(C(C)(C)C)c(O)c(C(C)(C)C)c2)c2cccnc21`, 86 to 88 °C. The compound `Clc1cc2snnc2s1` gave a melting point of 78 to 79 °C. In turn, `Nc1ccc(SCc2csc(NC=O)n2)cc1` had a melting point of 180 to 182 °C. The compound `CCOC(=O)Cc1ccc(NC(=O)c2cc(C(C)C)c(C(C)C)o2)cc1` yielded a melting point of 91.5 to 92.5 °C.

With `CC(=O)OC1CSC(Oc2cccc(-c3ccc(F)nc3)c2)C(OC(C)=O)C1OC(C)=O` (configuration not stated), the melting point amounted to 115 °C.

`CCCc1nc2c(N)nc(C)c(C)c2n1CCCCNC(C)=O`: the melting point was 200 to 201 °C. Consider `O=C1c2c(-c3ccccc3)noc2CCC1CCCN1CCCCC1` (configuration not stated), for which the melting point is 91.5 to 93.5 °C. On to `O=C(Nc1ccccc1C(F)(F)F)OCc1nccn1-c1cc2cc(C(=O)O)c(=O)[nH]c2cc1Cl`, for which the melting point was above 300 °C. Regarding `O=C(c1cc(=O)c2cc(O)ccc2[nH]1)N1CCC(Cc2ccc(F)cc2)CC1`, the melting point came out at 190 °C. The compound `CC1(C)Cc2cc(Cl)ccc2C=[N+]1[O-]` showed a melting point of 64.5 to 66.5 °C. Turning to `O=C(NCCN1CCC(C(=O)c2ccc(F)cc2)CC1)c1cccnc1`, the melting point came to 118 °C. To `Nc1nc(N)nc(C2CCN(Cc3ccccc3)CC2)n1` belongs above 260 °C. With `CCc1nnc2c3c(c(Cl)nn12)CCCC3` the figure was 93 to 94 °C; with `COc1cc2c(cc1OC)CCCC(C(=O)N1CCN(Cc3cc(OC)c(OC)c(OC)c3)CC1CN(C)C)=C2` (configuration not stated), 167 to 169 °C; with `Clc1ccc(Oc2cncc(Cl)n2)cc1`, 92 to 93 °C.

In turn, `O=C(O)CNC(=O)c1cn2nc(NCCCN3CCC(OC(c4ccccc4)c4ccccc4)CC3)ccc2n1` yielded a melting point of 171 °C. Regarding `Cn1cc(-c2ccc(C(F)(F)F)cc2)c(=O)c(-c2cccc(C(F)(F)F)c2)c1`, the melting point is 110 to 113 °C.

In turn, `CCCc1c(OCCCS(=O)(=O)c2ccc(CC(=O)O)c(Cl)c2Cl)ccc(C(C)=O)c1O` yielded a melting point of 180 to 181 °C.

On to `COCCOc1ccc(CCCC2OCCO2)c(Oc2ncc(C(F)(F)F)cc2Cl)c1`, for which the melting point is 92 to 92.5 °C.

With `COC(=O)c1ccc(Cc2c(C)[nH]c(C)cc2=O)cc1`, the melting point lay within 226 to 228 °C. `ON1C(c2ccccc2)CC2(CC1c1ccccc1)OCCO2` (configuration not stated): the melting point is 161 to 162 °C. With `CN(C)C=Nc1nc(OS(=O)(=O)c2ccccc2)ncc1F`, the melting point lay within 124 to 125 °C. `O=C1OCC(CCO)(c2ccc(Cl)c(Cl)c2)CN1Cc1ccccc1` (configuration not stated) registered a melting point of 143 °C. In the case of `Cc1c(OCc2ccccc2)ccc2c(O)c(C(=O)Nc3cccc(F)c3)c(=O)oc12`, the melting point was 220 °C. To `N#CC1=C(C2CC2)Nc2n[nH]cc2C1c1ccccc1Br` (configuration not stated) belongs above 250 °C.
